Measurements taken from ChEMBL document CHEMBL1121709, “Importance of the aromatic ring in adrenergic amines. 6. Nonaromatic analogues of phenylethanolamine as inhibitors of phenylethanolamine N-methyltransferase: role of pi-electronic and steric interactions” (J Med Chem, 1981).

molecular target: T1, Phenylethanolamine N-methyltransferase (Bos taurus, UniProt P10938); assay: The compound was measured for the 50% inhibition of phenylethanolamine N-methyl-transferase; 50% inhibition was not achieved at 10e-3 M
T1 sequence (P10938 whole entry): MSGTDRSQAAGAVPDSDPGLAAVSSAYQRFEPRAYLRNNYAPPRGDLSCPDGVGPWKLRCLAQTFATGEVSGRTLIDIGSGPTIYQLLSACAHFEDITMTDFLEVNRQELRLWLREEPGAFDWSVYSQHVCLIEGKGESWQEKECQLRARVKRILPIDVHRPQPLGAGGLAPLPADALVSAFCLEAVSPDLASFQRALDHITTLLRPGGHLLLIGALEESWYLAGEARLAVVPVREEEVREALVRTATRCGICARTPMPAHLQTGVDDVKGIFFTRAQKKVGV

Row | IC50 [µM] | Structure (SMILES)
1 | > 1000 | NCC(O)C12C=CC(CC1)C2 (stereo not drawn)
2 | > 1000 | NCC(O)C12CCC(CC1)C2 (stereo not drawn)

molecular target: T1, Phenylethanolamine N-methyltransferase; assay: The compound was measured for the 50% inhibition of phenylethanolamine N-methyl-transferase

Row | IC50 [µM] | Structure (SMILES)
3 | 195 | NCC(O)C12CC3C[C@H](C1)C[C@H](C3)C2 (stereo partly drawn)
4 | 8 | NCC(O)C1CCCCCCC1 (stereo not drawn)
5 | 454 | NCC(O)C1CC2C=CC1C2 (stereo in doubt; 9)
6 | 1100 | NCC(O)C1CC2C=CC1C2 (stereo in doubt; 10)
7 | 193 | NCC(O)C1CC2CCC1C2 (stereo in doubt; 12)
8 | 475 | NCC(O)C1CC2CCC1C2 (stereo in doubt; 13)
